The results in this text go back to PubChem BioAssay (NCI).

Molecules are shown by their SMILES.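 Method: 48-hour compound exposure of cells in 96-well plates, five concentrations, linear interpolation of endpoints. GI50 = concentration required for 50% inhibition of growth. TGI: total growth inhibition.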

Some test systems named below: A498 renal; HOP-92 NSCLC; HS 578T breast; K-562 leukemia; MALME-3M melanoma; MDA-MB-435; NCI-H23 lung; SK-MEL-5 melanoma; SNB-75 CNS; A549 NSCLC.
Common to all, as to assay: NCI-60 cell line screen, 48 h

Consider `Nc1nc(SCc2ccccc2CCl)c2[nH]cnc2n1`, for which the GI50 in the assay on A498 renal was 11.7 µM; in the assay with HOP-92 NSCLC it was 20 µM; with HS 578T breast it was 18.3 µM; in the assay on K-562 leukemia, 32.4 µM; in the assay on MALME-3M melanoma, 12.5 µM; in the assay on MDA-MB-435 it was 12.8 µM. The GI50 in the assay with NCI-H23 lung was 15.7 µM; in the assay on SK-MEL-5 melanoma, 10.8 µM; in the assay with SNB-75 CNS, 15.3 µM. Moreover, the TGI is 25.8 µM with A498 renal; 67.8 µM in the assay with HOP-92 NSCLC; 97.2 µM in the assay with HS 578T breast; above 100 µM with K-562 leukemia; 28.8 µM with MALME-3M melanoma; 25.7 µM with MDA-MB-435. In addition, the values for the TGI in the assay on NCI-H23 lung, in the assay with SK-MEL-5 melanoma and with SNB-75 CNS were 36.5 µM, 23.7 µM and 32.7 µM, respectively.

Consider `CN1CCCCC1CCN1c2ccccc2Sc2ccc(Br)cc21` (stereo not drawn), for which the GI50 in the assay with A498 renal was 2.21 µM; with A549 NSCLC it was 2.71 µM; with HOP-92 NSCLC, 1.4 µM; in the assay on HS 578T breast, 2.06 µM; with K-562 leukemia it was 2.18 µM; in the assay on MALME-3M melanoma, 2.08 µM. The GI50 in the assay with MDA-MB-435 was 1.98 µM; in the assay on NCI-H23 lung it was 4.44 µM; with SK-MEL-5 melanoma, 1.78 µM; in the assay on SNB-75 CNS, 1.65 µM. The TGI in the assay with A498 renal was 7.08 µM; with A549 NSCLC, 8.19 µM; in the assay on HOP-92 NSCLC, 4.72 µM; with HS 578T breast it was 5.85 µM; in the assay on K-562 leukemia, 5.98 µM; in the assay on MALME-3M melanoma, 4 µM. For the same compound, the TGI is 4.24 µM with MDA-MB-435, 17.1 µM in the assay on NCI-H23 lung, 3.47 µM with SK-MEL-5 melanoma and 5.56 µM with SNB-75 CNS.

As for `CC[C@H](C)[C@H](NC(=O)[C@H]1CCCCN1C)C(=O)N(C)[C@H](CCc1nc(C(=O)N[C@@H](Cc2ccccc2)C[C@H](C)C(=O)O)cs1)C(C)C`, the GI50 in the assay on A498 renal is 0.272 µM; in the assay with A549 NSCLC, 2.98 µM; in the assay with HOP-92 NSCLC, 0.643 µM; in the assay on HS 578T breast, 0.123 µM; in the assay with K-562 leukemia it was 0.0585 µM; in the assay with MDA-MB-435, 0.012 µM. Further, the figures for the GI50 in the assay with NCI-H23 lung, in the assay on SK-MEL-5 melanoma and in the assay on SNB-75 CNS were 0.565 µM, 0.0875 µM and 0.0621 µM, respectively. For the same compound, the TGI with A498 renal is above 25 µM; in the assay on A549 NSCLC, above 25 µM; in the assay with HOP-92 NSCLC, above 25 µM; with HS 578T breast, above 25 µM; in the assay on K-562 leukemia it was above 25 µM; with MDA-MB-435, 0.0724 µM. Also, the TGI is above 25 µM in the assay on NCI-H23 lung, 3.24 µM in the assay on SK-MEL-5 melanoma and above 25 µM with SNB-75 CNS.

For `Nc1ccc(CC[C@H]2CCC/C=C/[C@@H]3C[C@H](O)C[C@H]3[C@H](O)/C=C/C(=O)O2)cc1`, the GI50 with A498 renal was 0.0169 µM; in the assay on A549 NSCLC it was 0.0437 µM; with HOP-92 NSCLC it was 0.0436 µM; with HS 578T breast, below 0.0163 µM; with K-562 leukemia, 0.043 µM; in the assay on MALME-3M melanoma, 0.0731 µM. Also, the GI50 in the assay with MDA-MB-435 was 0.0388 µM; in the assay on NCI-H23 lung, 0.0379 µM; in the assay with SK-MEL-5 melanoma, below 0.013 µM; in the assay on SNB-75 CNS, 0.0189 µM. The TGI was 0.0491 µM in the assay with A498 renal; above 100 µM in the assay on A549 NSCLC; 0.53 µM in the assay on HOP-92 NSCLC; above 58.9 µM in the assay with HS 578T breast; above 100 µM in the assay with K-562 leukemia; 0.543 µM with MALME-3M melanoma. The TGI in the assay with MDA-MB-435 was 25.2 µM; in the assay on NCI-H23 lung, 1.06 µM; in the assay on SK-MEL-5 melanoma, 0.0236 µM; with SNB-75 CNS, above 100 µM.

Turning to `CC(C)(Oc1ccc(-c2cccc3ccccc23)cc1)C(=O)O`, the TGI in the assay with A498 renal, in the assay with A549 NSCLC, with HOP-92 NSCLC, in the assay with HS 578T breast, with K-562 leukemia and in the assay on MALME-3M melanoma was above 100 µM throughout. The TGI with MDA-MB-435, in the assay on NCI-H23 lung, in the assay with SK-MEL-5 melanoma and in the assay with SNB-75 CNS was above 100 µM throughout.

Regarding `O=C(Nc1ccn(C2CC(O)C(COC(c3ccccc3)(c3ccccc3)c3ccccc3)O2)c(=O)n1)c1ccccc1` (stereo not drawn), the TGI in the assay on A549 NSCLC was 16.7 µM; in the assay with HOP-92 NSCLC, 3.59 µM; in the assay on HS 578T breast, 5.91 µM; in the assay with K-562 leukemia, 7.3 µM; in the assay with MALME-3M melanoma, 5.89 µM; with MDA-MB-435 it was 5.68 µM. The TGI was 3.34 µM with NCI-H23 lung, 4.67 µM in the assay on SK-MEL-5 melanoma and 9.05 µM in the assay with SNB-75 CNS.

For `COc1cccc(C2CC(=O)Nc3c2c(C)nn3-c2nc3ccccc3[nH]2)c1OC` (stereo not drawn), the TGI with A498 renal was 8.38 µM; in the assay with A549 NSCLC it was 28.6 µM; in the assay on HOP-92 NSCLC, 24.3 µM; in the assay on HS 578T breast it was 47.5 µM; in the assay on K-562 leukemia, above 100 µM; in the assay with MALME-3M melanoma, 39 µM. The TGI in the assay with MDA-MB-435 stood at 12 µM; with NCI-H23 lung, 7.54 µM; with SK-MEL-5 melanoma it was 5.74 µM; in the assay on SNB-75 CNS it was 13.5 µM. In addition, the GI50 in the assay with A549 NSCLC was 3.5 µM; with HOP-92 NSCLC it was 2.95 µM; in the assay with HS 578T breast, 3.51 µM; in the assay on K-562 leukemia, 3.89 µM; with MALME-3M melanoma it was 7.97 µM; with MDA-MB-435, 3 µM. The GI50 was 2.53 µM with NCI-H23 lung, 2.2 µM in the assay with SK-MEL-5 melanoma and 2.43 µM in the assay with SNB-75 CNS.

In the case of `CC[C@H](C)[C@H](NC(=O)C12C3C4C1C1C2C3C41NC)C(=O)N(C)[C@H](C[C@@H](OC(C)=O)c1nc(C(=O)N[C@@H](Cc2ccccc2)C[C@H](C)C(=O)OC)cs1)C(C)C` (stereo partly drawn), the GI50 in the assay with A498 renal was 0.296 µM; with A549 NSCLC, 4.61 µM; with HOP-92 NSCLC, above 6.28 µM; with HS 578T breast, 0.693 µM; in the assay with K-562 leukemia it was 0.219 µM; in the assay on MDA-MB-435, 0.0489 µM. The figures for the GI50 in the assay on NCI-H23 lung, with SK-MEL-5 melanoma and in the assay with SNB-75 CNS were 0.705 µM, 0.159 µM and 0.319 µM, respectively. In addition, the TGI with A498 renal is 4.53 µM; in the assay with A549 NSCLC it was above 14.3 µM; in the assay with HOP-92 NSCLC it was above 14.3 µM; in the assay with HS 578T breast, above 11.9 µM; in the assay with K-562 leukemia, above 14.3 µM; with MALME-3M melanoma it was above 14.3 µM. The TGI in the assay with MDA-MB-435 is 0.377 µM; in the assay with NCI-H23 lung it was above 14.3 µM; in the assay with SK-MEL-5 melanoma it was 2.85 µM; with SNB-75 CNS it was above 14.3 µM.
